Ten compounds from ChEMBL document CHEMBL1201862, “PubChem BioAssay data set” (2004) can be followed below.

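These data come from cells grown in 96-well plates and exposed to compound for 48 hours at five concentrations. The concentration for 50% growth inhibition is given as GI50.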 Calls of active or inactive are those of the source. Cut-off read from the data, not from the text of the source: active = GI50 up to about 1.1 µM and inactive = higher. Bounds are passed on as bounds.

Some test systems named below: HCT-116; KM12; RPMI-8226; SR; IGROV-1; CAKI-1; SK-MEL-2; CCRF-CEM; HOP-92; OVCAR-3; ACHN; NCI-H23; NCI-H460; Malme-3M; SN12C; K562; OVCAR-8; NCI/ADR-RES; SF-268; SF-539.
Assay in all cases: NCI tumour cell line growth inhibition, 48 h

For `CCc1nc(N)nc(N)c1-c1ccc(Cl)c([N+](=O)[O-])c1`, the GI50 in the test on HCT-116 was 0.0224 µM (active); in the test with KM12, 0.535 µM (active); with RPMI-8226 it was 0.676 µM (active); with SR it was 0.0439 µM (active); in the test with IGROV-1, 0.0778 µM (active); with CAKI-1, 0.242 µM (active). Also, the GI50 with SK-MEL-2 was 17.9 µM (inactive); in the test on CCRF-CEM, 0.0557 µM (active); in the test on HOP-92, 5.16 µM (inactive); in the test with OVCAR-3, 8.05 µM (inactive); in the test on ACHN, 0.1 µM (active); in the test with NCI-H23 it was 0.0887 µM (active). The GI50 is < 0.028 µM (active) in the test on NCI-H460; 18.4 µM (inactive) with Malme-3M; 1.79 µM (inactive) in the test with SN12C; 0.0156 µM (active) in the test on K562; 0.074 µM (active) with OVCAR-8; 0.334 µM (active) with NCI/ADR-RES. The GI50 was 0.239 µM (active) in the test on SF-268 and 0.325 µM (active) in the test on SF-539.

With `NC1(C(=O)O)CCCC1C(=O)O` (stereo not given), the GI50 with HCT-116, in the test on KM12, in the test with RPMI-8226, in the test with SR, in the test on IGROV-1 and in the test with CAKI-1 was > 100 µM (inactive) in each case. Moreover, the GI50 with SK-MEL-2, in the test with CCRF-CEM, with HOP-92, with OVCAR-3, in the test on ACHN and in the test on NCI-H23 was > 100 µM (inactive) each time. Further, the GI50 in the test with NCI-H460, in the test on Malme-3M, in the test with SN12C, with K562, with OVCAR-8 and in the test with NCI/ADR-RES was > 100 µM (inactive) in each case. Moreover, the GI50 in the test with SF-268 and in the test with SF-539 was > 100 µM (inactive) in each case.

In the case of `CC(=O)C1(c2ccccc2)CCN(Cn2sc3nc(C)cc(C)c3c2=O)CC1`, the GI50 with HCT-116 is 23.1 µM (inactive); with KM12, > 100 µM (inactive); with RPMI-8226 it was 56.9 µM (inactive); in the test with SR, 32.1 µM (inactive); in the test on IGROV-1 it was > 100 µM (inactive); in the test with CAKI-1, 35.9 µM (inactive). The GI50 in the test on SK-MEL-2 was 44 µM (inactive); in the test with CCRF-CEM, 10.5 µM (inactive); in the test with HOP-92 it was 59.4 µM (inactive); in the test with OVCAR-3 it was 37.5 µM (inactive); in the test on ACHN, 17.8 µM (inactive); with NCI-H23 it was 19.1 µM (inactive). For the same compound, the GI50 in the test with NCI-H460 is 17.6 µM (inactive); in the test on Malme-3M it was 20.3 µM (inactive); in the test on SN12C it was 21.4 µM (inactive); with K562 it was 26.7 µM (inactive); with OVCAR-8, 27.4 µM (inactive); in the test with NCI/ADR-RES, 32 µM (inactive). Also, the GI50 in the test on SF-268 was 34.8 µM (inactive); in the test on SF-539 it was 22.5 µM (inactive).

On to `COc1cc2c(cc1C[C@H]1[C@@H]3C[C@H]4c5c(c6ccccc6n5C)C[C@@H]([C@@H]3CO[C@]1(C)OC(C)=O)N4C)c1c(n2C)C2C[C@H]3C(C(C)=O)=COC[C@H]3[C@H](C1)N2C`, for which the GI50 is 2.5 µM (inactive) in the test on HCT-116; 2 µM (inactive) with KM12; 0.764 µM (active) with RPMI-8226; 2.64 µM (inactive) with SR; 7.24 µM (inactive) in the test with IGROV-1; 2.23 µM (inactive) with CAKI-1. For the same compound, the GI50 with SK-MEL-2 is 4.86 µM (inactive); with CCRF-CEM, 2.55 µM (inactive); in the test with HOP-92, 4.98 µM (inactive); with OVCAR-3, 2.66 µM (inactive); in the test with ACHN, 3.87 µM (inactive); with NCI-H23 it was 7.06 µM (inactive). The GI50 in the test on NCI-H460 was 3.38 µM (inactive); in the test on Malme-3M, 3.18 µM (inactive); with SN12C, 6.24 µM (inactive); with K562 it was 6.03 µM (inactive); with OVCAR-8 it was 3.66 µM (inactive); with NCI/ADR-RES, 2.93 µM (inactive). Also, the GI50 with SF-268 is 2.69 µM (inactive); in the test with SF-539, 2.84 µM (inactive).

On to `COC(=O)[C@H](CCSC)NC(=O)c1ccc(CNC(=O)/C=C/c2cccc(Oc3ccccc3)c2)cc1`, for which the GI50 in the test on HCT-116 is > 100 µM (inactive); in the test on KM12, > 100 µM (inactive); in the test on RPMI-8226 it was 45.5 µM (inactive); with SR, 19.7 µM (inactive); in the test with IGROV-1, 27.5 µM (inactive); in the test with CAKI-1, > 46.5 µM (inactive). The GI50 is 14.8 µM (inactive) with SK-MEL-2; 33.1 µM (inactive) in the test on CCRF-CEM; 9.75 µM (inactive) in the test on HOP-92; 23.3 µM (inactive) in the test on OVCAR-3; > 74.6 µM (inactive) in the test with ACHN; 42 µM (inactive) in the test on NCI-H23. In addition, the GI50 in the test with NCI-H460 is 60.5 µM (inactive); in the test on Malme-3M, 18.8 µM (inactive); with SN12C, 60.5 µM (inactive); in the test with K562, 20.7 µM (inactive); in the test with OVCAR-8, > 100 µM (inactive); in the test on NCI/ADR-RES it was 43 µM (inactive). Also, the figures for the GI50 with SF-268 and in the test with SF-539 were > 59.2 µM (inactive) and > 74.3 µM (inactive), respectively.

Turning to `Nc1nc(Cl)cc(NCC2(CO)CC(OCc3ccccc3)C2)n1` (stereo not given), the GI50 with HCT-116 is 40.5 µM (inactive); in the test on KM12 it was > 100 µM (inactive); in the test with RPMI-8226 it was 45.9 µM (inactive); with SR, 25.1 µM (inactive); with IGROV-1, > 100 µM (inactive); with CAKI-1, > 100 µM (inactive). Moreover, the GI50 in the test on SK-MEL-2 is > 100 µM (inactive); in the test on CCRF-CEM it was > 100 µM (inactive); with HOP-92, > 100 µM (inactive); with OVCAR-3 it was 49.2 µM (inactive); in the test with ACHN, > 100 µM (inactive); in the test on NCI-H23, > 100 µM (inactive). Also, the GI50 in the test with NCI-H460 was 78.7 µM (inactive); with Malme-3M, > 100 µM (inactive); with SN12C, > 100 µM (inactive); in the test with K562, 14.6 µM (inactive); with OVCAR-8, 71.6 µM (inactive); in the test with NCI/ADR-RES, 36.1 µM (inactive). Also, the results for the GI50 in the test on SF-268 and with SF-539 were 14.8 µM (inactive) and > 100 µM (inactive), respectively.

As for `CCCN1C(=O)/C(=C\c2ccc(OC)c(OC)c2)S/C1=N\c1ccccc1`, the GI50 in the test with HCT-116, with KM12, in the test on RPMI-8226, with SR, with IGROV-1 and with CAKI-1 was > 100 µM (inactive) each time. Also, the GI50 is 52.8 µM (inactive) in the test with SK-MEL-2; > 100 µM (inactive) with CCRF-CEM; 50.1 µM (inactive) with HOP-92; > 100 µM (inactive) in the test on OVCAR-3; > 100 µM (inactive) in the test with ACHN; > 100 µM (inactive) with NCI-H23. The GI50 with NCI-H460, in the test on Malme-3M, in the test on SN12C, in the test with K562, in the test on OVCAR-8 and in the test on NCI/ADR-RES was > 100 µM (inactive) throughout. For the same compound, the results for the GI50 in the test with SF-268 and in the test with SF-539 were 38.6 µM (inactive) and 24.7 µM (inactive), respectively.

For the compound `[N-]=[N+]=Nc1c(-c2ccccc2)c(Cl)nc2ccccc12`, the GI50 with HCT-116 was 47.8 µM (inactive); with KM12, 19.1 µM (inactive); in the test on RPMI-8226, 29.7 µM (inactive); with SR, 39.5 µM (inactive); with IGROV-1, 39.5 µM (inactive); in the test on CAKI-1 it was 31.8 µM (inactive). The GI50 with SK-MEL-2 is 58.3 µM (inactive); in the test on CCRF-CEM it was > 100 µM (inactive); in the test with HOP-92, 22 µM (inactive); in the test on OVCAR-3, 44.6 µM (inactive); in the test on ACHN, 19.6 µM (inactive); with NCI-H23 it was 33.5 µM (inactive). Besides, the GI50 with NCI-H460 is 31.5 µM (inactive); in the test with Malme-3M it was 34.8 µM (inactive); with SN12C, 32.5 µM (inactive); in the test with K562, 45.7 µM (inactive); in the test on OVCAR-8, 58.2 µM (inactive); in the test on NCI/ADR-RES, 34.8 µM (inactive). The GI50 with SF-268 was 48.1 µM (inactive); in the test with SF-539 it was 43.8 µM (inactive).

`CO/N=C(\C(=O)N(C)n1cnnc1)c1csc(NC(c2ccccc2)(c2ccccc2)c2ccccc2)n1`: the GI50 with HCT-116, in the test on KM12, in the test on RPMI-8226, in the test with SR, with IGROV-1 and in the test on CAKI-1 was > 10 µM (inactive) in each case. In addition, the GI50 in the test on SK-MEL-2, with CCRF-CEM, in the test on HOP-92, in the test on OVCAR-3, in the test with ACHN and in the test on NCI-H23 was > 10 µM (inactive) in each case. Besides, the GI50 in the test with NCI-H460, in the test with Malme-3M, with SN12C, in the test on K562, in the test with OVCAR-8 and in the test with NCI/ADR-RES was > 10 µM (inactive) each time. For the same compound, the GI50 with SF-268 and in the test on SF-539 was > 10 µM (inactive) throughout.

With `CCCN(CCC)C1CCc2c(ccc3cc[nH]c23)C1` (stereo not given), the GI50 in the test with HCT-116 was 66.8 µM (inactive); in the test with KM12, 60.4 µM (inactive); in the test with RPMI-8226 it was 41 µM (inactive); in the test with SR, 22.9 µM (inactive); in the test on IGROV-1, 62.7 µM (inactive); in the test with CAKI-1, > 100 µM (inactive). Moreover, the GI50 with SK-MEL-2 is > 100 µM (inactive); with CCRF-CEM, 26.3 µM (inactive); with HOP-92 it was 27.7 µM (inactive); with OVCAR-3 it was 61.4 µM (inactive); with ACHN it was > 100 µM (inactive); with NCI-H23, > 100 µM (inactive). In addition, the GI50 in the test with NCI-H460 is 72.3 µM (inactive); in the test on Malme-3M, 58.1 µM (inactive); with SN12C, > 100 µM (inactive); with K562, 30.5 µM (inactive); in the test with OVCAR-8 it was > 100 µM (inactive); in the test on NCI/ADR-RES, > 100 µM (inactive). In addition, the GI50 was 94.2 µM (inactive) in the test on SF-268 and > 100 µM (inactive) in the test on SF-539.
